Measurements as given in ChEMBL document CHEMBL4507302, “Data for DCP probe TP-020” (2021).

Tests used:
[1] = test system: Tyrosine-protein kinase ABL1 (Homo sapiens), P00519 [F317L]; conditions: Compound concentration 1000.0 nM
[2] = target: Tyrosine-protein kinase ABL2 (Homo sapiens) (UniProt P42684); conditions: Compound concentration 1000.0 nM
[3] = target: Activin receptor type-1 (Homo sapiens) (UniProt Q04771); conditions: Compound concentration 1000.0 nM
[4] = target: Activin receptor type-2A (Homo sapiens) (UniProt P27037); conditions: Compound concentration 1000.0 nM
[5] = target: 5'-AMP-activated protein kinase catalytic subunit alpha-1 (Homo sapiens) (UniProt Q13131); conditions: Compound concentration 1000.0 nM
[6] = target: Aurora kinase A (Homo sapiens) (UniProt O14965); conditions: Compound concentration 1000.0 nM
[7] = target: Aurora kinase C (Homo sapiens) (UniProt Q9UQB9); conditions: Compound concentration 1000.0 nM
[8] = target: Bone morphogenetic protein receptor type-1A (Homo sapiens) (UniProt P36894); conditions: Compound concentration 1000.0 nM
[9] = target: Serine/threonine-protein kinase B-raf (Homo sapiens) (UniProt P15056); conditions: Compound concentration 1000.0 nM
[10] = target: Peripheral plasma membrane protein CASK (Homo sapiens) (UniProt O14936); conditions: Compound concentration 1000.0 nM
[11] = target: Cyclin-dependent kinase 4 (Homo sapiens) (UniProt P11802); conditions: Compound concentration 1000.0 nM
[12] = target: Serine/threonine-protein kinase Chk2 (Homo sapiens) (UniProt O96017); conditions: Compound concentration 1000.0 nM
[13] = target: Serine/threonine-protein kinase DCLK2 (Homo sapiens) (UniProt Q8N568); conditions: Compound concentration 1000.0 nM
[14] = target: Ephrin type-A receptor 6 (Homo sapiens) (UniProt Q9UF33); conditions: Compound concentration 1000.0 nM
[15] = target: Mitogen-activated protein kinase 3 (Homo sapiens) (UniProt P27361); conditions: Compound concentration 1000.0 nM
[16] = test system: Receptor-type tyrosine-protein kinase FLT3 (Homo sapiens), P36888 [D835V]; conditions: Compound concentration 1000.0 nM
[17] = test system: Receptor-type tyrosine-protein kinase FLT3 (Homo sapiens), P36888 [N841I]; conditions: Compound concentration 1000.0 nM
[18] = target: Beta-adrenergic receptor kinase 1 (Homo sapiens) (UniProt P25098); conditions: Compound concentration 1000.0 nM
[19] = target: Tyrosine-protein kinase JAK3 (Homo sapiens) (UniProt P52333); conditions: Compound concentration 1000.0 nM
[20] = target: Mitogen-activated protein kinase kinase kinase 15 (Homo sapiens) (UniProt Q6ZN16); conditions: Compound concentration 1000.0 nM
[21] = target: MAP kinase-activated protein kinase 2 (Homo sapiens) (UniProt P49137); conditions: Compound concentration 1000.0 nM
[22] = target: Dual specificity mitogen-activated protein kinase kinase 2 (Homo sapiens) (UniProt P36507); conditions: Compound concentration 1000.0 nM
[23] = target: Dual specificity mitogen-activated protein kinase kinase 3 (Homo sapiens) (UniProt P46734); conditions: Compound concentration 1000.0 nM
[24] = target: Dual specificity mitogen-activated protein kinase kinase 4 (Homo sapiens) (UniProt P45985); conditions: Compound concentration 1000.0 nM
[25] = target: Mitogen-activated protein kinase 12 (Homo sapiens) (UniProt P53778); conditions: Compound concentration 1000.0 nM
[26] = target: Serine/threonine-protein kinase PAK 4 (Homo sapiens) (UniProt O96013); conditions: Compound concentration 1000.0 nM
[27] = target: Serine/threonine-protein kinase PAK 5 (Homo sapiens) (UniProt Q9P286); conditions: Compound concentration 1000.0 nM
[28] = target: Phosphorylase b kinase gamma catalytic chain, skeletal muscle/heart isoform (Homo sapiens) (UniProt Q16816); conditions: Compound concentration 1000.0 nM
[29] = test system: Phosphatidylinositol 4,5-bisphosphate 3-kinase catalytic subunit alpha isoform (Homo sapiens), P42336 [H1047Y]; conditions: Compound concentration 1000.0 nM
[30] = test system: Phosphatidylinositol 4,5-bisphosphate 3-kinase catalytic subunit alpha isoform (Homo sapiens), P42336 [I800L]; conditions: Compound concentration 1000.0 nM
[31] = target: Protein kinase C iota type (Homo sapiens) (UniProt P41743); conditions: Compound concentration 1000.0 nM
[32] = test system: Proto-oncogene tyrosine-protein kinase receptor Ret (Homo sapiens), P07949 [V804L]; conditions: Compound concentration 1000.0 nM
[33] = target: Receptor-interacting serine/threonine-protein kinase 4 (Homo sapiens) (UniProt P57078); conditions: Compound concentration 1000.0 nM
[34] = target: Ribosomal protein S6 kinase alpha-4 (Homo sapiens) (UniProt O75676); conditions: Compound concentration 1000.0 nM
[35] = target: Ribosomal protein S6 kinase alpha-5 (Homo sapiens) (UniProt O75582); conditions: Compound concentration 1000.0 nM
[36] = target: Ribosomal protein S6 kinase alpha-2 (Homo sapiens) (UniProt Q15349); conditions: Compound concentration 1000.0 nM
[37] = target: SRSF protein kinase 1 (Homo sapiens) (UniProt Q96SB4); conditions: Compound concentration 1000.0 nM
[38] = target: SRSF protein kinase 2 (Homo sapiens) (UniProt P78362); conditions: Compound concentration 1000.0 nM
[39] = target: BDNF/NT-3 growth factors receptor (Homo sapiens) (UniProt Q16620); conditions: Compound concentration 1000.0 nM
[40] = target: Non-receptor tyrosine-protein kinase TYK2 (Homo sapiens) (UniProt P29597); conditions: Compound concentration 1000.0 nM
[41] = target: Wee1-like protein kinase (Homo sapiens) (UniProt P30291); conditions: Compound concentration 1000.0 nM
[42] = target: Serine/threonine-protein kinase 32A (Homo sapiens) (UniProt Q8WU08); conditions: Compound concentration 1000.0 nM
[43] = target: Sodium-dependent noradrenaline transporter (Homo sapiens) (UniProt P23975); conditions: Compound concentration 10.0 uM
[44] = target: Histamine H4 receptor (Homo sapiens) (UniProt Q9H3N8); conditions: Compound concentration 10.0 uM
[45] = target: Muscarinic acetylcholine receptor M4 (Homo sapiens) (UniProt P08173); conditions: Compound concentration 10.0 uM

Chain of Serine/threonine-protein kinase B-raf (Homo sapiens) (P15056 whole entry): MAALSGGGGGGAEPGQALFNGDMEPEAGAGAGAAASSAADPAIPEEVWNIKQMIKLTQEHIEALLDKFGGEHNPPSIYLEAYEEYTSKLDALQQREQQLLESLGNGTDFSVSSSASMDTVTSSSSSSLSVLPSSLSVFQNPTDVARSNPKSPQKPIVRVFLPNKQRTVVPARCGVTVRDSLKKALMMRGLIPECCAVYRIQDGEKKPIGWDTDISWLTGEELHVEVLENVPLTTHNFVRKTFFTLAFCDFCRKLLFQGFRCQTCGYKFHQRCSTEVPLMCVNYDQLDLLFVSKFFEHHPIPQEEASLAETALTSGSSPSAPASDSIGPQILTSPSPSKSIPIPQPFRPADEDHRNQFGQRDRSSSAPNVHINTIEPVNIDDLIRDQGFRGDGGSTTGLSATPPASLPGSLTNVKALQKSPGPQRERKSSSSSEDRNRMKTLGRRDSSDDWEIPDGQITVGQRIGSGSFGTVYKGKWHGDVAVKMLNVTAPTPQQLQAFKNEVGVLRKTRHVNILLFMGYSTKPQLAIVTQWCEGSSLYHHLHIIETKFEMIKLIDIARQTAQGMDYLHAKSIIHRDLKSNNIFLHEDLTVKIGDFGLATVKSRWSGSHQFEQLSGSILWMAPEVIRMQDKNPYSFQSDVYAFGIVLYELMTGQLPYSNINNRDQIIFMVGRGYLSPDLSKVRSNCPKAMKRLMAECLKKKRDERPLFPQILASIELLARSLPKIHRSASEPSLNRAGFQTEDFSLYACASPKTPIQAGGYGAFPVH
Chain of Aurora kinase C (Homo sapiens) (Q9UQB9 whole entry): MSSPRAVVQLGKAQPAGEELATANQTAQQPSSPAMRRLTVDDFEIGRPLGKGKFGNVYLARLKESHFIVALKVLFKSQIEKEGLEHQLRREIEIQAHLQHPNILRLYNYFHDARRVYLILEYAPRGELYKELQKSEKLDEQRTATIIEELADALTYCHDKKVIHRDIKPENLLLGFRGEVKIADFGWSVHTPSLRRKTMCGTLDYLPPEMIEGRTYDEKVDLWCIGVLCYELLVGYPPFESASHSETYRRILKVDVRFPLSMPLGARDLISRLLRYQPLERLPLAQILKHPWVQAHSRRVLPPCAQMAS
Chain of Tyrosine-protein kinase JAK3 (Homo sapiens) (P52333 whole entry): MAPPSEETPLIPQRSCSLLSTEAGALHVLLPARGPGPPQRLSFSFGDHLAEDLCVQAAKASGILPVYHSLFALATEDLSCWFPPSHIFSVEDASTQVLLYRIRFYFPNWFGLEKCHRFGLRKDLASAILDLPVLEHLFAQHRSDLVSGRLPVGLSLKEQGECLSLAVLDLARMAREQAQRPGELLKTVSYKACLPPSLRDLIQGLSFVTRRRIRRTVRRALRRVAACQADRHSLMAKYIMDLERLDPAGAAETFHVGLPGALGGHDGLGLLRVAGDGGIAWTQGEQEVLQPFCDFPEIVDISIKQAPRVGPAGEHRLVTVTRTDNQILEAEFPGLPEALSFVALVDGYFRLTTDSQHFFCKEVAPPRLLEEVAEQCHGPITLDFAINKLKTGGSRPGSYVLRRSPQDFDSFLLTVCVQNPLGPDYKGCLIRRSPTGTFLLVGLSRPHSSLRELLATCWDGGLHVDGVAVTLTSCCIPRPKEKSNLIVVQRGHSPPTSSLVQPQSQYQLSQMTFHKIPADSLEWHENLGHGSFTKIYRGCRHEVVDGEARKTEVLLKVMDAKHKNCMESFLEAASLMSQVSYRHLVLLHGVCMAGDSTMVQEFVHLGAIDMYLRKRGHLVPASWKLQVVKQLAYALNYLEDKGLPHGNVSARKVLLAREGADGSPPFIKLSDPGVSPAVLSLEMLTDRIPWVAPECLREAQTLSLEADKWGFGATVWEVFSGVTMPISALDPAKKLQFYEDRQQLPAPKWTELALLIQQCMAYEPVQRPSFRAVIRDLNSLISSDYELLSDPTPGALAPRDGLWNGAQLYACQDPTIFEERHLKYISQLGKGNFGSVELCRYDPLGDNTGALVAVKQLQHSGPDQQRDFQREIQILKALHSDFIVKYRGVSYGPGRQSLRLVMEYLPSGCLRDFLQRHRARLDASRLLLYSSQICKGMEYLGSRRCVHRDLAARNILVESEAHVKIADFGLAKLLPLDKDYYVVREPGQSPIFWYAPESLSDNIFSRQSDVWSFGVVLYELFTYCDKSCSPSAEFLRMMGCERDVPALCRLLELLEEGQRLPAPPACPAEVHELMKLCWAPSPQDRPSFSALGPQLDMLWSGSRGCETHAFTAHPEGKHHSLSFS
Chain of SRSF protein kinase 1 (Homo sapiens) (Q96SB4 whole entry): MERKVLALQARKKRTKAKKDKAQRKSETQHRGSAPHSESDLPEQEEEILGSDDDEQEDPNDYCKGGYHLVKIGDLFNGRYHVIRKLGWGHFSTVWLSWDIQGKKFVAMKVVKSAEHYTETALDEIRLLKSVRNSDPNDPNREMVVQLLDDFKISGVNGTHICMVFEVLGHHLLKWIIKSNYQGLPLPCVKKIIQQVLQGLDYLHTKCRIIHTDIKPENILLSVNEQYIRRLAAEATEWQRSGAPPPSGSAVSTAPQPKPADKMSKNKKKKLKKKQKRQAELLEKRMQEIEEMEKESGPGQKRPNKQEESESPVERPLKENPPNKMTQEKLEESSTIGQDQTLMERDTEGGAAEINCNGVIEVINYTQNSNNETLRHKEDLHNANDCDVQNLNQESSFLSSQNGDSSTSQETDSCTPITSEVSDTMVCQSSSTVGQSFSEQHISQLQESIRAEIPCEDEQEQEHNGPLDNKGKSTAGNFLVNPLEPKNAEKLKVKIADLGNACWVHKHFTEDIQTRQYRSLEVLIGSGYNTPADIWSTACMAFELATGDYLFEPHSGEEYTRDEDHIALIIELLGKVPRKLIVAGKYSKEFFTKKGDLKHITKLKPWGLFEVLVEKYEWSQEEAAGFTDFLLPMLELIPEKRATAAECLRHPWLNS
Chain of Serine/threonine-protein kinase PAK 4 (Homo sapiens) (O96013 whole entry, looked up): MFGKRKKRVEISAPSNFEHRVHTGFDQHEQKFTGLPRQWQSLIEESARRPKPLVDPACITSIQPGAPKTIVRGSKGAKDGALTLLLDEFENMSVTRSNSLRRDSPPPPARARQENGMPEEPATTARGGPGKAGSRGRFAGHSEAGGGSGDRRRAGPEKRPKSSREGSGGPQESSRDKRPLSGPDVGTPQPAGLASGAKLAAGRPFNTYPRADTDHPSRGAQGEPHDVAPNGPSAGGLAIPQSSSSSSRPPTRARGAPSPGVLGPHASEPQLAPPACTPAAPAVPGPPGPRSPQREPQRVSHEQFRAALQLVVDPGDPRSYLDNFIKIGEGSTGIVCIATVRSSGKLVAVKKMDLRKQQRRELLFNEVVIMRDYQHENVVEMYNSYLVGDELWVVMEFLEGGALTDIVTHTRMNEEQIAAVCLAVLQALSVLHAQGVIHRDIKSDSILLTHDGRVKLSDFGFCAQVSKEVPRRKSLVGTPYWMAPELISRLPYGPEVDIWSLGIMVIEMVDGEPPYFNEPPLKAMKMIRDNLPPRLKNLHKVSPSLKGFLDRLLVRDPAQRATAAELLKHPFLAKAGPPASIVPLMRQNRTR
Chain of Peripheral plasma membrane protein CASK (Homo sapiens) (O14936 whole entry): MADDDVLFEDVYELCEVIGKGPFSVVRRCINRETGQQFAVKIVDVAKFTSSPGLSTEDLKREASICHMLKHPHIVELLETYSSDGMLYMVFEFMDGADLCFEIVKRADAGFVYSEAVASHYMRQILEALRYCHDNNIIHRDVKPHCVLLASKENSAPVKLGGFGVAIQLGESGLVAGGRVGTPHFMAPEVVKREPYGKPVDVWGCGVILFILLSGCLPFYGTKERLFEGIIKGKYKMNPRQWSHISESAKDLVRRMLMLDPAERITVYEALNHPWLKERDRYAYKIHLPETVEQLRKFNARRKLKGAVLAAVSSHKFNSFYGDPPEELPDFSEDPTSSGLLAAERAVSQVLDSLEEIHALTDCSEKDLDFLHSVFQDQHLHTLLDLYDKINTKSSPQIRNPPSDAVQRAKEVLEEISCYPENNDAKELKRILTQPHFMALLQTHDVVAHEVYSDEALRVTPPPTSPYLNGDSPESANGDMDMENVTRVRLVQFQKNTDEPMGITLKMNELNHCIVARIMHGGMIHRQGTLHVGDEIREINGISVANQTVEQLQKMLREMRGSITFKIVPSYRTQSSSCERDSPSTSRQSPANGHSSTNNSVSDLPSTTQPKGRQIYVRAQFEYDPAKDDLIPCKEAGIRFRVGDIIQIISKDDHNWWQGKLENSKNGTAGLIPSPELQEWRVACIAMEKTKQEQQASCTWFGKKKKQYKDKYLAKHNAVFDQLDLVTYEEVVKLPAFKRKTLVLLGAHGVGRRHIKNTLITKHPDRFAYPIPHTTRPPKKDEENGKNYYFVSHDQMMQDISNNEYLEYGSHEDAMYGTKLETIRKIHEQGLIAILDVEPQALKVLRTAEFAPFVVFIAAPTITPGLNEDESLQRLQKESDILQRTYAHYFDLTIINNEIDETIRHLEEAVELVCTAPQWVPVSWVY
Chain of Activin receptor type-2A (Homo sapiens) (P27037 whole entry): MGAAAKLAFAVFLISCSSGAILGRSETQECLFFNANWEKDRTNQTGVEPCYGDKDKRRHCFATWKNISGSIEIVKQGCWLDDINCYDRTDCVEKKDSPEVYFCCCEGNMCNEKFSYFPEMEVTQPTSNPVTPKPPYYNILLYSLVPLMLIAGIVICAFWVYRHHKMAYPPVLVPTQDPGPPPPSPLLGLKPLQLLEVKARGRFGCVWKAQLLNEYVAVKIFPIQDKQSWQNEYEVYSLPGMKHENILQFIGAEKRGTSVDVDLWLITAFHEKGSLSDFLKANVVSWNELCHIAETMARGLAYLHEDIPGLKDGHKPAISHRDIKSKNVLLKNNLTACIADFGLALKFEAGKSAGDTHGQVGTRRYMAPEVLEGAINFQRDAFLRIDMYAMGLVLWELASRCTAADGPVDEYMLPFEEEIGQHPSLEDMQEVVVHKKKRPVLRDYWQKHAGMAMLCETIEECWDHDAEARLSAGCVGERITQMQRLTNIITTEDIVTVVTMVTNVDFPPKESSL

`Nc1cnc(N2CCc3cc(S(=O)(=O)Nc4c(F)cc(Cl)cc4F)cc(N4CCCC4=O)c32)nc1` showed a residual activity [1] of 99%, a residual activity [2] of 95% and a residual activity [3] of 100%. For the same compound, the residual activity [4] was 67%, the residual activity [5] was 100% and the residual activity [6] was 100%. For the same compound, the residual activity [7] was 100%, the residual activity [8] was 91% and the residual activity [9] was 98%. For the same compound, the residual activity [10] was 94%, the residual activity [11] was 97% and the residual activity [12] was 92%. For the same compound, the residual activity [13] was 100%, the residual activity [14] was 98% and the residual activity [15] was 91%. The residual activity [16] was 100%, the residual activity [17] was 89% and the residual activity [18] was 100%. It also gave a residual activity [19] of 100%, a residual activity [20] of 100% and a residual activity [21] of 100%. It also gave a residual activity [22] of 92%, a residual activity [23] of 100% and a residual activity [24] of 100%. The residual activity [25] was 100%, the residual activity [26] was 89% and the residual activity [27] was 90%. For the same compound, the residual activity [28] was 71%, the residual activity [29] was 100% and the residual activity [30] was 80%. It also gave a residual activity [31] of 100%, a residual activity [32] of 99% and a residual activity [33] of 76%. It also gave a residual activity [34] of 96%, a residual activity [35] of 95% and a residual activity [36] of 88%. The residual activity [37] was 81%, the residual activity [38] was 100% and the residual activity [39] was 100%. The residual activity [40] was 100%, the residual activity [41] was 72% and the residual activity [42] was 80%. It also gave an inhibition [43] of 18.2%, an inhibition [44] of -0.37% and an inhibition [45] of 9.99%.
`Cn1nc(C(F)(F)F)cc1-c1cnc(N2CCc3cc(S(=O)(=O)Nc4c(F)cc(Cl)cc4F)cc(N4CCCC4=O)c32)nc1` [TP-020] showed a residual activity [1] of 60%, a residual activity [2] of 100% and a residual activity [3] of 85%. For the same compound, the residual activity [4] was 83%, the residual activity [5] was 98% and the residual activity [6] was 88%. For the same compound, the residual activity [7] was 100%, the residual activity [8] was 98% and the residual activity [9] was 82%. For the same compound, the residual activity [10] was 77%, the residual activity [11] was 68% and the residual activity [12] was 100%. For the same compound, the residual activity [13] was 100%, the residual activity [14] was 89% and the residual activity [15] was 100%. The residual activity [16] was 91%, the residual activity [17] was 94% and the residual activity [18] was 85%. The residual activity [19] was 81%, the residual activity [20] was 81% and the residual activity [21] was 73%. It also gave a residual activity [22] of 84%, a residual activity [23] of 82% and a residual activity [24] of 88%. For the same compound, the residual activity [25] was 83%, the residual activity [26] was 100% and the residual activity [27] was 100%. The residual activity [28] was 98%, the residual activity [29] was 76% and the residual activity [30] was 77%. For the same compound, the residual activity [31] was 94%, the residual activity [32] was 100% and the residual activity [33] was 67%. The residual activity [34] was 85%, the residual activity [35] was 86% and the residual activity [36] was 100%. For the same compound, the residual activity [37] was 77%, the residual activity [38] was 34% and the residual activity [39] was 75%. It also gave a residual activity [40] of 78%, a residual activity [41] of 88% and a residual activity [42] of 78%. For the same compound, the inhibition [43] was 5.69%, the inhibition [44] was 10.9% and the inhibition [45] was 41.2%.
